US9017645B2, “Homoglutamic acid derivatives” (Piramal Imaging SA, priority 2009, dated 2015)

Tests used:
H460 (human NSCLC) cells = assay: Cell uptake of F-18 labeled tracer in H460 cells; type: cell-based; details: 0.25 MBq, 60 min incubation, PBS 0.1% BSA
Procedure: FIG. 4: Time dependent uptake of (2S)-2-amino-5-[3-[^18F]fluoropropyl]hexanedioic acid was determined. H460 cells were incubated with 0.25 MBq (2S)-2-amino-5-[3-[^18F]fluoropropyl]hexanedioic acid for up to 60 min and the cell-bound fraction was determined after 10, 20, 30 and 60 min)
Cell uptake & Retention of (2S)-2-amino-5-[3-[^18F]fluoropropyl]hexanedioic acid—For determination of the biological activity of (2S)-2-amino-5-[3-[^18F]fluoropropyl]hexanedioic acid, the F-18 labeled compound was used as tracer in a cell uptake experiment using H460 (human NSCLC) cells. Approximately 100.000 cells were incubated with 0.25 MBq (2S)-2-amino-5-[3-[^18F]fluoropropyl]hexanedioic acid for up to 60 minutes in PBS-buffer containing 0.1% BSA and the cell-bound fraction was determined. A time-dependent uptake was observed during the 60 min incubation period. Approximately 20% of applied dose was taken up by the cells during the 60 min incubation period (FIG. 4).

[1] = test system: NCI-H460 (human NSCLC) tumor bearing nude-rats; assay: PET imaging in NCI-H460 tumor bearing nude-rats; type: in vivo, nude-rats (RH-Foxn1 nu/nu); details: 8.35 MBq i.v., PET at 60 min p.i. for 10 min
Procedure: FIG. 6: PET-Imaging of (2S)-2-amino-5-[3-[^18F]fluoropropyl]hexanedioic acid in H460 tumor bearing rats. 8.35 MBq of radioactive tracer was injected i.v. into rats. PET images were obtained using the Siemens Inveon PET/CT scanner from 60 min p.i. for 10 min.
PET imaging. (2S)-2-amino-5-[3-[^18F]fluoropropyl]hexanedioic acid was examined in NCI-H460 (human NSCLC) tumor bearing nude-rats (RH-Foxn1 nu/nu) using PET-Imaging. 8.35 MBq of (2S)-2-amino-5-[3-[^18F]fluoropropyl]hexanedioic acid was injected into the rat. PET images were acquired at 60 min p.i. for 10 min. […] 3.2% of the injected dose was taken up per gram of tumor as was determined by region of interest (ROI) analysis (FIG. 6).

SMILES: N[C@@H](CCC(CCC[18F])C(=O)O)C(=O)O (stereo partly drawn) [(2S)-2-amino-5-[3-[^18F]fluoropropyl]hexanedioic acid]
- cell uptake (cell-bound fraction) (H460 (human NSCLC) cells): Approximately 20 % of applied dose
- tumor uptake by region of interest (ROI) analysis [1]: 3.2 % of the injected dose per gra
- visibility of the tumor in PET images [1]: very well visible
